Source: paper PMC6145916, “Interaction of mitochondrial fission factor with dynamin related protein 1 governs physiological mitochondrial function in vivo” (Scientific Reports, 2018)
Where no end group is shown, it is not given here.

Legend:
MFF knockout MEFs = test: Mitochondrial ROS (MitoSox), MFF knockout MEFs; assay type: cell-based, mouse; conditions: 4 µM P259 daily for three days, vs no peptide; 3 independent experiments, three technical replicates; ns p = 0.23
Text: (§1) Data are of 3 independent experiments with the whiskers calculated by the Turkey method. e. […]
(§2) production in an Mff -dependent manner. Mitochondrial reactive oxygen species production […]
(§3) treatment in each cell line. […]
(§4) determined by an unpaired, two -tailed t test). g. […]
(§5) control (no peptide treatment). Data are mean ± s.e. from 3 independent experiments.
Mitochondrial reactive oxygen species determination […]
and 1% penicillin-streptomycin solution (Corning, NY, USA). […]
and without phenol red. […] After incubation
HEPES, and without phenol red. […]
epifluorescence microscope with a 10X objective (Keyence). The Cy5 filter (Keyence) was used to autofocus on the mitochondria plane. […]
(§6) calculated as the average MitoSox signal per cell. […]

Mff-Drp1 interaction = test: Co-immunoprecipitation of Drp1 and Mff from SH-SY5Y cell lysate; assay type: cell-based, human; conditions: 1 µM, 1 hour, relative to TAT-carrier control; n = 3, with 2 replicates
[1] = system: Huntington's disease patient-derived fibroblasts; test: Mitochondrial ROS (MitoSox) in HD patient-derived fibroblasts; assay type: cell-based, human; conditions: indicated peptide concentration daily for three days, normalized to healthy fibroblast control; 3 independent experiments
Description: (DNM1L) and MFF genes. a.
DNM1L and MFF throughout evolution. NCBI PSI -BLAST was performed for the human […]
corresponding to the human gene. c.
DNM1L and 7/7 isoforms of MFF. d. […]
affect mitochondrial fusion measured by photoconvertible den dra2 protein. Mito -dendra2 […]
The initial image following […]
species production (MitoSox). d.
as §1, §2, §3, §4, §5
Human neuroblastoma SH-SY5Y cells purchased from ATCC were cultured in a 50/50 mixture of […]
using SH-SY5Y cells were carried out in the same growth medium with the exception of using […]
Wild-type and MFF knockout mouse embryonic fibroblast (MEF) cells were generously provided by Professor David Chan. […]
an NCBI protein blast of the P259 sequence ([…]) was performed across the human genome database and the top 75 gene query hits were recorded.7 The orthologs of each available gene were obtained from the Ensembl database.8 Of the resulting 75 human gene hits, 37 had […]
as §6

YGRKKRRQRRRGSGIIQLPEIVVV-NH2 (C-terminus assumed) [P259]
effect on mitochondrial ROS levels, Mff knockout MEFs (MFF knockout MEFs): insensitive | Mff-Drp1 interactions (co-IP) (Mff-Drp1 interaction): significant reduction in Mff-Drp1 interactions | mitochondrial ROS [1]: further increased mitochondrial ROS
